Experiments:
HSV-2/MS = assay: Herpes genitalis in the guinea pig, local lesion scores; type: in vivo, guinea pigs of the Pirbright strain
Method: Female albino guinea-pigs of the Pirbright strain, weighing 200-300 g, are infected intravaginally after gentle opening of the introitus vaginae with a forceps. Thereafter, pieces of fibrin foam (SEVAC, Prague) measuring 5×5×4 mm are impregnated with 0.05 ml containing about 10^4 PFU of HSV 2/MS from cultures in HEL. These pieces are introduced intravaginally (1-2). The animals are kept in groups of 4-5 in type 4 Macrolon cages.
Three days after infection, by which time the local symptomatology scores (see below) range from 3 to 6 in about 90% of the animals, these animals are divided at random into groups of 10-15 per preparation and untreated control. Treatment is started 72 hours after infection and administered twice daily for 5 days. One tenth of a milliliter is applied intravaginally and 0.1 ml extravaginally.
From the 3rd day onwards, the local symptoms are evaluated thrice weekly. The criteria applied in assessing the therapeutic effects of treatment are the rate and the degree of regression of overt signs of infection in the individual animals. The degree and severity of local symptoms are scored according to the following points system:
The number indicated in the following Table of female albino guinea pigs of the Pirbright strain (150-180 g body weight) are infected intravaginally with ~10^4 PFU (plaque-forming units) of herpes simplex type 2 virus, cultivated in HEL (human embryonal lungs) cells, as described in B. Lukas et al., Arch. ges. Virusforsch. 44, 153-155 (1974).
Beginning 72 h after infection, animals are treated intravaginally twice a day for 5 days with 0.2 ml of a gel containing one of the following: i) alpha interferon B1 D2 B3 B4 at 1.5×10^6 units/kg; ii) Liposome-encapsulated MTP-PE at 1 mg/kg and iii) a mixture of both. Guinea pigs receiving placebo treatment are given a gel without active ingredients.

[1] = Body distribution of liposomes following i.v. administration; type: in vivo; settings: rodents
Method: Alpha interferon is diluted in calcium and magnesium free PBS, and 2.5 ml is used to reconstitute 250 mg lyophilized synthetic lipids (POPC/OOPS, 7:3 molar ratio) containing 1 mg MTP-PE. This mixture is vigorously shaken in a Vortex mixer for 2 minutes and allowed to stand for 30 minutes prior to revortexing and the addition of another 2.5 ml of PBS. It is found (using I^125 labelled alpha interferon) that approximately 20% of the interferon is bound to liposomes following this reconstitution procedure. Liposomes prepared in this manner have the same physical properties as liposomes containing only MTP-PE and appear to follow the same body distribution profile following i.v. administration in rodents. Approximately 2-3 times more MTP-PE and interferon reach the lung when both substances are incorporated into liposomes as compared to unencapsulated forms.

rat alveolar macrophages = assay: In vitro alveolar macrophage-mediated cytotoxicity against MADB-200 tumor cells (crystal violet); type: cell-based; settings: interferon 0
Method: Macrophage-mediated cytotoxicity was assessed against syngeneic MADB-200 adenocarcinoma target cells available from the American Type Culture Collection, ATCC. These cells were maintained as monolayer cultures in MEM supplemented with 10% fetal calf serum. Cultures were maintained at 37° C. in a humidified atmosphere containing 5% CO2. Cultures were routinely tested for the presence of mycoplasma.
Alveolar macrophages (AM) were collected by transtracheal lavage (Brownbill and Schumann, Cancer Immunol. Immunother. 20, 11-17, 1985). The cells recovered from lavage fluids were centrifuged at 400× g for 10 minutes, suspended in serum-free medium, and plated into 96-well Microtest II plastic tissue culture dishes at 5×10^4 cells per well. After incubation for 60 minutes, cells were washed with HBSS to remove non-adherent […].
Purified cultures of rat alveolar macrophages were incubated at 37° C. for 1 hour with 0.2 ml of control medium, recombinant alpha B1 D2 B3 B4, MTP-PE, or a combination of alpha B1 D2 B3 B4 and MTP-PE. To these treated cells, 5×10^3 MADB-200 tumor cells were added and allowed to incubate for 72 hours at 37° C. Thus, 50,000 macrophages were incubated with 5000 tumor cells.
A colorimetric assay using crystal violet staining of remaining MADB-200 tumor cells was used to determine macrophage cytotoxicity (Brownbill and Schumann, Cancer Immunol. Immunother. 20, 11-17, 1985). Briefly, following incubation, wells are washed with HBSS and the remaining cells fixed with formalin and stained with crystal violet. Each well is thoroughly washed after staining, the cells decolorized with alcohol, and the extract read with a colorimeter. The % cytotoxic activity of alveolar macrophages was calculated as follows: [formula]

CCCCCCCCCCCCCCCC(=O)OC[C@H](COP(=O)([O-])OCCNC(=O)[C@H](C)NC(=O)CC[C@@H](NC(=O)[C@H](C)NC(=O)[C@@H](C)O[C@H]1[C@H](O)[C@@H](CO)O[C@@H](O)[C@@H]1NC(C)=O)C(N)=O)OC(=O)CCCCCCCCCCCCCCC.[Na+] [MTP-PE, N-acetyl-muramyl-L-alanyl-D-isoglutaminyl-L-alanine-2-(1,2-di-palmitoyl-sn-glycero-3-hydroxyphosphoryloxy)-ethylamide-sodium salt]
Mean Lesion Score ± Standard Error (HSV-2/MS; day 3 after infection (start of treatment), gel intravaginally twice a day for 5 days, interferon 1.5×10^6 units/kg, liposome-encapsulated MTP-PE 1 mg/kg): 1.9 ± 0.23 | Mean Lesion Score ± Standard Error (HSV-2/MS; day 5 after infection, same treatment): 2.8 ± 1.15 | Mean Lesion Score ± Standard Error (HSV-2/MS; day 7 after infection, same treatment): 4.3 ± 1.32 | Mean Lesion Score ± Standard Error (HSV-2/MS; day 10 after infection, same treatment): 4.0 ± 1.93 | Mean Lesion Score ± Standard Error (HSV-2/MS; day 12 after infection, same treatment): 4.3 ± 1.42 | Mean Lesion Score ± Standard Error (HSV-2/MS; day 14 after infection, same treatment): 4.3 ± 1.42 | Mean Lesion Score ± Standard Error (HSV-2/MS; day 17 after infection, same treatment): 3.0 ± 1.60 | amount reaching the lung, both substances incorporated into liposomes as compared to unencapsulated forms [1]: 2-3 times | % Cytotoxicity (rat alveolar macrophages; MTP-PE alone 0.01 μg/ml): 0% | % Cytotoxicity (rat alveolar macrophages; MTP-PE alone 0.03 μg/ml): 7% | % Cytotoxicity (rat alveolar macrophages; MTP-PE alone 0.1 μg/ml): 10%
